Experimental data taken from US6358698B1 (Acadia Pharmacueticals Inc., priority 1998, dated 2002).
Read-outs that look alike come from different tables or passages of the source. Blank lines part the entries; values can stand above or below the compound they belong to.

How the values were obtained:
5-HT2A receptor = target: T1, 5-HT2A receptor (Homo sapiens, UniProt P28223); experiment: R-SAT functional assay, constitutively active wild type 5-HT2A receptor in NIH 3T3 cells; assay type: cell-based; conditions: for Negative LOG EC50 (inverse agonism, inhibition of constitutive activity): Table 2, molar negative log EC50, mean of three dose response experiments +/- standard error, 50 ng/well DNA
T1 construct: expressed in transfected cells; host or cells: NIH 3T3 (mouse fibroblast)
T1 sequence (P28223 whole entry): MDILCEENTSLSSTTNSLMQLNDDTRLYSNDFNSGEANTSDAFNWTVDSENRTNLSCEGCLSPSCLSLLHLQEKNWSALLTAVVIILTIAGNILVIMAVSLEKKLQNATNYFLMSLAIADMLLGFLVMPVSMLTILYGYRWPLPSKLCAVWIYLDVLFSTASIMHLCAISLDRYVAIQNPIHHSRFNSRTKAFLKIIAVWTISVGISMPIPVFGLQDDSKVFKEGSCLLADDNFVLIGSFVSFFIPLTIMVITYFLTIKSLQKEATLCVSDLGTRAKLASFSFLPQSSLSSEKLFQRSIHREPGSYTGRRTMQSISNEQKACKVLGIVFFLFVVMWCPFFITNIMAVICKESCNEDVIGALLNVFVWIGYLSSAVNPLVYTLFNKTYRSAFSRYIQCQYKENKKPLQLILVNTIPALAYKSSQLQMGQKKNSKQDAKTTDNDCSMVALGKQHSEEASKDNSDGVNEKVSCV

human 5-HT2C receptor = target: T2, human 5-HT2C receptor (Homo sapiens, UniProt P28335); experiment: R-SAT functional assay, constitutively active wild type 5-HT2C receptor; assay type: cell-based; conditions: for EC50: read-out: 5-HT2C Receptor Negative Log EC50 (inverse agonism) (converted); for 5-HT2C Receptor Negative Log EC50 (inverse agonism): Table 3, 50 ng per well receptor DNA, assayed as agonists and inverse agonists
T2 construct: expressed in transfected cells; host or cells: not restated for 5-HT2C; R-SAT as for 5-HT2A (NIH 3T3)
T2 sequence (P28335 33-458): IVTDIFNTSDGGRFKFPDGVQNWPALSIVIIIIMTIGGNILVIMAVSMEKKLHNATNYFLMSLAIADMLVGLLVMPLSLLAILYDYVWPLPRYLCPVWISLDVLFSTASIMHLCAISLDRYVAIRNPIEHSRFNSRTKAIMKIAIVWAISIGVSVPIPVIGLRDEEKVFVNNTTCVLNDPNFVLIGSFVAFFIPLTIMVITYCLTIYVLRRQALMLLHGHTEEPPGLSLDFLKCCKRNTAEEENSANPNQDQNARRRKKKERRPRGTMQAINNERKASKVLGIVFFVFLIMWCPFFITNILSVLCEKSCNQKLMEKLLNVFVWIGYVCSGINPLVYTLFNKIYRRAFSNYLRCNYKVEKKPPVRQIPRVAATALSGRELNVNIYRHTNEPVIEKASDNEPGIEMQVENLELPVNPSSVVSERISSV

[1] = Table 3, 50 ng/well receptor DNA
[2] = compounds screened at 300-500 nM, 50 ng/well receptor DNA, […], mean of duplicates
[3] = Table 3, 50 ng/well receptor DNA, read-out: 5-HT2A Receptor Negative Log EC50 (inverse agonism) (converted)
[4] = compounds screened at 300-500 nM, 50 ng/well receptor DNA, inhibition from basal, referenced to ritanserin (90-100%), mean of duplicates
[5] = read-out: Negative LOG EC50 (inverse agonism, inhibition of constitutive activity) (converted)

EC50 (human 5-HT2C receptor): 513 nM | EC50 (5-HT2A receptor; [3]): 1.82 nM
Structure (SMILES): O=C1CC2(CCCC2)CC(=O)N1CCCCN1CCN(c2nsc3ccccc23)CC1 [Tiospirone]

Functional character at 5-HT2A receptor (inhibits signaling below baseline) (5-HT2A receptor; PSI vector expression, in words): inverse agonist
Structure (SMILES): Cc1nc2sccn2c(=O)c1CCN1CCC(=C(c2ccc(F)cc2)c2ccc(F)cc2)CC1 [RITANSERIN]

% INHIBITION (screen for inverse agonism at 5-HT2A receptors) (5-HT2A receptor; [4]): 92%
Structure (SMILES): Cc1nc2ccccn2c(=O)c1CCN1CCC(C(=O)c2ccc(F)cc2)CC1 [PIRENPIRONE]

EC50 (human 5-HT2C receptor): 1290 nM | EC50 (5-HT2A receptor; [3]): 30.2 nM
Structure (SMILES): CN1CCN(C2=Nc3ccccc3Cc3ccccc32)CC1 [Perlapine]

5-HT2C Receptor Negative Log EC50 (inverse agonism) (human 5-HT2C receptor): No Intrinsic
Structure (SMILES): Cc1ccc(C2(O)CCN(CCCC(=O)c3ccc(F)cc3)CC2)cc1 [Moperone]

5-HT2C Receptor Negative Log EC50 (inverse agonism) (human 5-HT2C receptor): No Intrinsic
Structure (SMILES): CC1CCN(CCCC(=O)c2ccc(F)cc2)CC1 [Melperone]

5-HT2C Receptor Negative Log EC50 (inverse agonism) (human 5-HT2C receptor): No Intrinsic | 5-HT2A Receptor Negative Log EC50 (inverse agonism) (5-HT2A receptor; [1]): 7.00 +/− 0.30
Structure (SMILES): CN1CCCCC1CCN1c2ccccc2Sc2ccc([S+](C)[O-])cc21 (centres unmarked) [Mesioridazine]

EC50 (human 5-HT2C receptor): 5.25 nM | EC50 (5-HT2A receptor; [3]): 0.955 nM | EC50 (5-HT2A receptor; [5]): 0.955 nM
Structure (SMILES): OCCN1CCN([C@@H]2C[C@@H](c3ccc(F)cc3)c3ccc(C(F)(F)F)cc32)CC1 (racemic) [Tefludazine]

5-HT2C Receptor Negative Log EC50 (inverse agonism) (human 5-HT2C receptor): Agonist
Structure (SMILES): CN(C)CCCN1c2ccccc2Sc2ccccc21 [Promazine]

5-HT2C Receptor Negative Log EC50 (inverse agonism) (human 5-HT2C receptor): No Intrinsic
Structure (SMILES): CCN1CCCC1CNC(=O)c1cc(S(N)(=O)=O)ccc1OC (centres unmarked) [Sulpiride]

5-HT2C Receptor Negative Log EC50 (inverse agonism) (human 5-HT2C receptor): No Intrinsic
Structure (SMILES): O=C(CCCN1CCC2(CC1)C(=O)NCN2c1ccccc1)c1ccc(F)cc1 [SPIPERONE]

5-HT2C Receptor Negative Log EC50 (inverse agonism) (human 5-HT2C receptor): Agonist | 5-HT2A Receptor Negative Log EC50 (inverse agonism) (5-HT2A receptor; [1]): 6.60 +/− 0.44
Structure (SMILES): CN(C)CCCN1c2ccccc2Sc2cccnc21 [Prothypendyl]

5-HT2C Receptor Negative Log EC50 (inverse agonism) (human 5-HT2C receptor): No Intrinsic
Structure (SMILES): CN1CCN(CC/C=C2/c3ccccc3Sc3ccc(S(=O)(=O)N(C)C)cc32)CC1 [Thiothixene]

The next lines start with the compound.

Structure (SMILES): CN1CCN(C2Cc3ccccc3Sc3ccc(Cl)cc32)CC1.O=C(O)/C=C\C(=O)O (centres unmarked) [OCTOCLOTHEPIN]
5-HT2A Receptor Negative Log EC50 (inverse agonism) (5-HT2A receptor; [1]): 9.74 +/− 0.98 | % INHIBITION (screen for inverse agonism at 5-HT2A receptors) (5-HT2A receptor; [2]): 76%

Structure (SMILES): CCN(CC)CCCN1c2ccccc2Sc2ccc(Cl)cc21 [Chlorproethizene]
5-HT2C Receptor Negative Log EC50 (inverse agonism) (human 5-HT2C receptor): <5.0 | 5-HT2A Receptor Negative Log EC50 (inverse agonism) (5-HT2A receptor; [1]): 7.70 +/− 0.33

Structure (SMILES): CCNC(=O)N1CCN(CCCC(c2ccc(F)cc2)c2ccc(F)cc2)CC1 [Amperozide]
5-HT2C Receptor Negative Log EC50 (inverse agonism) (human 5-HT2C receptor): No Intrinsic | EC50 (5-HT2A receptor; [3]): 15.8 nM

Structure (SMILES): OCCN1CCN(CC/C=C2\c3ccccc3Sc3ccc(C(F)(F)F)cc32)CC1 [Trans-Flupentixol]
5-HT2C Receptor Negative Log EC50 (inverse agonism) (human 5-HT2C receptor): 5.55 +/− 0.37 | Negative LOG EC50 (inverse agonism, inhibition of constitutive activity) (5-HT2A receptor): 6.77 +/− 0.21 | 5-HT2A Receptor Negative Log EC50 (inverse agonism) (5-HT2A receptor; [1]): 6.77 +/− 0.21

Structure (SMILES): OCCN1CCN(CC/C=C2/c3ccccc3Sc3ccc(C(F)(F)F)cc32)CC1 [CIS-FLUPENTIXOL]
5-HT2C Receptor Negative Log EC50 (inverse agonism) (human 5-HT2C receptor): No Intrinsic | Negative LOG EC50 (inverse agonism, inhibition of constitutive activity) (5-HT2A receptor): 8.04 +/− 0.10 | 5-HT2A Receptor Negative Log EC50 (inverse agonism) (5-HT2A receptor; [1]): 8.04 +/− 0.10 | % INHIBITION (screen for inverse agonism at 5-HT2A receptors) (5-HT2A receptor; [2]): 45%

Structure (SMILES): CN1CCN(C2=Nc3ccccc3Oc3ccc(Cl)cc32)CC1 [LOXAPINE]
EC50 (human 5-HT2C receptor): 501 nM

Structure (SMILES): O=C(CCCN1CCC(O)(c2ccc(Br)cc2)CC1)c1ccc(F)cc1 [Bromperidol]
5-HT2C Receptor Negative Log EC50 (inverse agonism) (human 5-HT2C receptor): No Intrinsic

Structure (SMILES): N[C@@H](Cc1c[nH]c2ccc(O)cc12)C(=O)O [5-hydroxy-Ltryptophan]
% INHIBITION (screen for inverse agonism at 5-HT2A receptors) (5-HT2A receptor; [4]): 53%

Structure (SMILES): O=C(CCCN1CCC(O)(c2cccc(C(F)(F)F)c2)CC1)c1ccc(F)cc1 [TRIFLUPERIDOL]
EC50 (human 5-HT2C receptor): > 10000 nM | EC50 (5-HT2A receptor; [3]): 25.7 nM | EC50 (5-HT2A receptor; [5]): 25.7 nM

Structure (SMILES): CN1CCN(C2=Nc3ccccc3Sc3ccc(Cl)cc32)CC1 [Clothiapine]
EC50 (human 5-HT2C receptor): 479 nM | EC50 (5-HT2A receptor; [3]): 2.82 nM

Structure (SMILES): CSc1ccc2c(c1)C(N1CCN(C)CC1)Cc1ccccc1S2 (centres unmarked) [METHIOTHEPIN]
% INHIBITION (screen for inverse agonism at 5-HT2A receptors) (5-HT2A receptor): 79%
